What was measured:
[1] = system: Aβ production in Chinese hamster ovary cells that over-express human APP695 with the London and Swedish mutations; test: Cellular Aβ IC50 determination (Aβ40 sandwich ELISA); type: cell-based; conditions: Cricetulus griseus; cellular Aβ production; read-out: IC50
Protocol: The potency of compounds against memapsin 2 activity was determined in a cellular assay of Aβ production. […] Chinese hamster ovary cells that over-express human APP695 with the London and Swedish mutations were seeded in multi-well plates at 10% confluency. Compounds are dissolved in DMSO to concentrations near 1 mM, and diluted into culture media to a final concentration near 4 μM (final 0.4% DMSO). […] Aliquots were removed and assayed for Aβ40 content using a sandwich ELISA (BioSource International). Amount of Aβ40 over the range of concentration of compounds, relative to control incubations, were fit to a 4-parameter IC50 model.

memapsin 2 = memapsin 2 (Homo sapiens, UniProt P56817); test: Inhibition of memapsin 2 beta-secretase activity (fluorogenic substrate FS-2); type: biochemical; conditions: memapsin 2, pH 4, 37° C., 20 minutes pre-incubation; read-out: M2Ki
memapsin 2, sequence (P56817 46-501): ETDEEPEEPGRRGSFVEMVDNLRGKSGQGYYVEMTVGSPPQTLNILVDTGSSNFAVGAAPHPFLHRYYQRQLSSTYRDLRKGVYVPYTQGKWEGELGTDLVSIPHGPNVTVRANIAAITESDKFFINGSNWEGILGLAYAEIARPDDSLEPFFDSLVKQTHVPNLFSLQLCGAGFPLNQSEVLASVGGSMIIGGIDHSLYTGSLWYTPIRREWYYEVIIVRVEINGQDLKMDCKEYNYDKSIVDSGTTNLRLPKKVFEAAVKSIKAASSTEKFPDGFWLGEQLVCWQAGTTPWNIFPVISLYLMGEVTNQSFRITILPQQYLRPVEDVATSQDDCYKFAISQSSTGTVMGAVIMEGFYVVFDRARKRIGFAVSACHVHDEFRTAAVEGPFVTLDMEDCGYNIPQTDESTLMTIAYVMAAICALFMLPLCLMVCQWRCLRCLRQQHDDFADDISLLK
Method in brief: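 Memapsin 2 pre-incubated 20 min with compound at pH 4, 37° C, then FS-2 substrate (MCA-SEVNLDAEFK-DNP, APP Swedish cleavage site) added. Rate of fluorescence increase compared with uninhibited controls, fitted to a tight-binding inhibition model.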

For `COc1cccc(CNC[C@@H](O)[C@H](Cc2ccccc2)NC(=O)c2cc(CO)cc(C(=O)N(C)Cc3nc(C)cs3)c2)c1` [Compound 49, N1-((2S,3R)-3-hydroxy-4-(3-methoxybenzylamino)-1-phenylbutan-2-yl)-5-(hydroxymethyl)-N3-methyl-N3-((4-methylthiazol-2-yl)methyl)isophthalamide], which IC50 [1] is on record?
Its IC50 is less than 1000 nM.

What about the Ki (memapsin 2) of the same molecule?
Its Ki is less than 300 nM.

Which results are given for `COc1cccc(F)c1CNC[C@@H](O)[C@H](Cc1ccccc1)NC(=O)c1cccc(C(=O)N(C)Cc2nc(C)cs2)c1` [Compound 50, N1-((2S,3R)-4-(2-fluoro-6-methoxybenzylamino)-3-hydroxy-1-phenylbutan-2-yl)-N3-methyl-N3-((4-methylthiazol-2-yl)methyl)isophthalamide]?
IC50 [1]: < 1000 nM; Ki (memapsin 2): < 300 nM

Which IC50 [1] does the source give for `Cc1csc(CN(C(=O)c2cccc(C(=O)N[C@@H](Cc3ccccc3)[C@H](O)CNCc3cccc(OC(F)(F)F)c3)c2)C2CC2)n1` [Compound 51, N1-cyclopropyl-N3-((2S,3R)-3-hydroxy-1-phenyl-4-(3-(trifluoromethoxy)benzylamino)butan-2-yl)-N1-((4-methylthiazol-2-yl)methyl)isophthalamide] here?
Its IC50 is less than 1000 nM.

And the Ki (memapsin 2)?
Its Ki is less than 300 nM.

`Cc1csc(CN(C)C(=O)c2cccc(C(=O)N[C@@H](Cc3ccccc3)[C@H](O)CNCc3cccc(C(C)(C)C)c3)c2)n1` [Compound 52, N1-((2S,3R)-4-(3-tert-butylbenzylamino)-3-hydroxy-1-phenylbutan-2-yl)-N3-methyl-N3-((4-methylthiazol-2-yl)methyl)isophthalamide] was tested. Which IC50 [1] did it give?
The IC50 was less than 1000 nM.

What about the Ki (memapsin 2) of the same molecule?
The Ki was less than 300 nM.

For `COc1cc(C(=O)N[C@@H](Cc2ccccc2)[C@H](O)CNCc2ccnc(C(C)C)c2)cc(C(=O)N(C)Cc2nc(C)cs2)c1` [Compound 53, N1-((2S,3R)-3-hydroxy-4-((2-isopropylpyridin-4-yl)methylamino)-1-phenylbutan-2-yl)-5-methoxy-N3-methyl-N3-((4-methylthiazol-2-yl)methyl)isophthalamide], which IC50 [1] is on record?
The IC50 was less than 1000 nM.

What about the Ki (memapsin 2) of the same molecule?
The Ki was less than 300 nM.

How did the IC50 [1] turn out when `COC(=O)c1cc(CNC[C@@H](O)[C@H](Cc2ccccc2)NC(=O)c2cccc(C(=O)N(C)Cc3nc(C)cs3)c2)cc(OC)c1` [Compound 54, methyl 3-(((2R,3S)-2-hydroxy-3-(3-(methyl((4-methylthiazol-2-yl)methyl)carbamoyl)benzamido)-4-phenylbutylamino)methyl)-5-methoxybenzoate] was run?
The IC50 was less than 1000 nM.

What about the Ki (memapsin 2) of the same molecule?
The Ki was less than 300 nM.

What does the source list for `Cc1csc(CN(C)C(=O)c2cccc(C(=O)N[C@@H](Cc3ccccc3)[C@H](O)CNCc3cc(C(C)C)cnc3F)c2)n1` [Compound 56, N1-((2S,3R)-4-((2-fluoro-5-isopropylpyridin-3-yl)methylamino)-3-hydroxy-1-phenylbutan-2-yl)-N3-methyl-N3-((4-methylthiazol-2-yl)methyl)isophthalamide]?
IC50 [1]: < 1000 nM; Ki (memapsin 2): < 300 nM

`C[C@@H](NC(=O)c1cc(C(=O)N[C@@H](Cc2ccccc2)[C@H](O)CNCc2cccc(C(C)(C)C)c2)cc(N(C)S(C)(=O)=O)c1)c1ccccc1` [Compound 58, N1-((2S,3R)-4-(3-tert-butylbenzylamino)-3-hydroxy-1-phenylbutan-2-yl)-5-(N-methylmethylsulfonamido)-N3-((R)-1-phenylethyl)isophthalamide] was tested. Which IC50 [1] did it give?
Its IC50 is less than 1000 nM.

And the Ki (memapsin 2)?
The Ki was less than 300 nM.

How did the IC50 [1] turn out when `Cc1csc(CN(C(=O)c2cccc(C(=O)N[C@@H](Cc3ccccc3)[C@H](O)CNCc3cncc(C(F)(F)F)c3)c2)C2CC2)n1` [Compound 59, N1-cyclopropyl-N3-((2S,3R)-3-hydroxy-1-phenyl-4-((5-(trifluoromethyl)pyridin-3-yl)methylamino)butan-2-yl)-N1-((4-methylthiazol-2-yl)methyl)isophthalamide] was run?
Its IC50 is less than 1000 nM.

And the Ki (memapsin 2)?
The Ki was less than 300 nM.

Which results are given for `Cc1cc(C(=O)N[C@@H](Cc2ccccc2)[C@H](O)CNCc2ccnc(C(C)C)c2)cc(C(=O)N(C)Cc2nc(C)cs2)c1` [Compound 60, N1-((2S,3R)-3-hydroxy-4-((2-isopropylpyridin-4-yl)methylamino)-1-phenylbutan-2-yl)-N3,5-dimethyl-N3-((4-methylthiazol-2-yl)methyl)isophthalamide]?
IC50 [1]: < 1000 nM; Ki (memapsin 2): < 300 nM

What does the source list for `COc1cccc(CNC[C@@H](O)[C@H](Cc2ccccc2)NC(=O)c2cccc(C(=O)N(C)Cc3ccn(C)n3)c2)c1` [Compound 61, N1-((2S,3R)-3-hydroxy-4-(3-methoxybenzylamino)-1-phenylbutan-2-yl)-N3-methyl-N3-((1-methyl-1H-pyrazol-3-yl)methyl)isophthalamide]?
IC50 [1]: 1000 to 5000 nM; Ki (memapsin 2): < 300 nM

How did the IC50 [1] turn out when `Cc1csc(CN(C)C(=O)c2cccc(C(=O)N[C@@H](Cc3ccccc3)[C@H](O)CNCc3ccccn3)c2)n1` [Compound 64, N1-((2S,3R)-3-hydroxy-1-phenyl-4-(pyridin-2-ylmethylamino)butan-2-yl)-N3-methyl-N3-((4-methylthiazol-2-yl)methyl)isophthalamide] was run?
The IC50 was 1000 to 5000 nM.

And the Ki (memapsin 2)?
The Ki was greater than 501 nM.

With `COc1cccc(CNC[C@@H](O)[C@H](Cc2ccccc2)NC(=O)c2cc(C(=O)N(C)Cc3nc(C)cs3)cc(N(C)C)c2)c1` [Compound 65, 5-(dimethylamino)-N1-((2S,3R)-3-hydroxy-4-(3-methoxybenzylamino)-1-phenylbutan-2-yl)-N3-methyl-N3-((4-methylthiazol-2-yl)methyl)isophthalamide] as the molecule, how does the IC50 [1] read?
Its IC50 is less than 1000 nM.

What about the Ki (memapsin 2) of the same molecule?
The Ki was less than 300 nM.

Which IC50 [1] does the source give for `COc1cccc(CNC[C@@H](O)[C@H](Cc2ccccc2)NC(=O)c2cc(OS(C)(=O)=O)cc(C(=O)N(C)Cc3nc(C)cs3)c2)c1` [Compound 67, 3-((2S,3R)-3-hydroxy-4-(3-methoxybenzylamino)-1-phenylbutan-2-ylcarbamoyl)-5-(methyl((4-methylthiazol-2-yl)methyl)carbamoyl)phenyl methanesulfonate] here?
Its IC50 is less than 1000 nM.

And the Ki (memapsin 2)?
The Ki was less than 300 nM.

Which results are given for `Cc1csc(CN(C)C(=O)c2cccc(C(=O)N[C@@H](Cc3ccccc3)[C@H](O)CNCc3cncc(CCC(C)C)c3)c2)n1` [Compound 68, N1-((2S,3R)-3-hydroxy-4-((5-isopentylpyridin-3-yl)methylamino)-1-phenylbutan-2-yl)-N3-methyl-N3-((4-methylthiazol-2-yl)methyl)isophthalamide]?
IC50 [1]: < 1000 nM; Ki (memapsin 2): < 300 nM

With `COc1cccc(CNC[C@@H](O)[C@H](Cc2ccccc2)NC(=O)c2cc(OS(C)(=O)=O)cc(C(=O)N[C@H](C)c3ccccc3)c2)c1` [Compound 70, 3-((2S,3R)-3-hydroxy-4-(3-methoxybenzylamino)-1-phenylbutan-2-ylcarbamoyl)-5-((R)-1-phenylethylcarbamoyl)phenyl methanesulfonate] as the molecule, how does the IC50 [1] read?
Its IC50 is less than 1000 nM.

And the Ki (memapsin 2)?
Its Ki is less than 300 nM.

How did the IC50 [1] turn out when `Cc1csc(CN(C)C(=O)c2cccc(C(=O)N[C@@H](Cc3ccccc3)[C@H](O)CNCc3cccc(O)c3)c2)n1` [Compound 73, N1-((2S,3R)-3-hydroxy-4-(3-hydroxybenzylamino)-1-phenylbutan-2-yl)-N3-methyl-N3-((4-methylthiazol-2-yl)methyl)isophthalamide] was run?
The IC50 was greater than 5000 nM.

And the Ki (memapsin 2)?
Its Ki is greater than 501 nM.

`Cc1csc(CN(C)C(=O)c2cccc(C(=O)N[C@@H](Cc3ccccc3)[C@H](O)CNCc3cc(NC(=O)OCc4ccccc4)cc(C(C)C)c3)c2)n1` [Compound 74, benzyl 3-(((2R,3S)-2-hydroxy-3-(3-(methyl((4-methylthiazol-2-yl)methyl)carbamoyl)benzamido)-4-phenylbutylamino)methyl)-5-isopropylphenylcarbamate] was tested. Which IC50 [1] did it give?
The IC50 was less than 1000 nM.

And the Ki (memapsin 2)?
Its Ki is less than 300 nM.

`Cc1csc(CN(C)C(=O)c2cccc(C(=O)N[C@@H](Cc3ccccc3)[C@H](O)CNCc3cc(N)cc(C(C)C)c3)c2)n1` [Compound 75, N1-((2S,3R)-4-(3-amino-5-isopropylbenzylamino)-3-hydroxy-1-phenylbutan-2-yl)-N3-methyl-N3-((4-methylthiazol-2-yl)methyl)isophthalamide] was tested. Which IC50 [1] did it give?
The IC50 was less than 1000 nM.

And the Ki (memapsin 2)?
Its Ki is less than 300 nM.

For `Cc1csc(CN(C)C(=O)c2cccc(C(=O)N[C@@H](Cc3ccccc3)[C@H](O)CNCc3cccc(C(C)(C)C)c3O)c2)n1` [Compound 77, N1-((2S,3R)-4-(3-tert-butyl-2-hydroxybenzylamino)-3-hydroxy-1-phenylbutan-2-yl)-N3-methyl-N3-((4-methylthiazol-2-yl)methyl)isophthalamide], which IC50 [1] is on record?
The IC50 was less than 1000 nM.

What about the Ki (memapsin 2) of the same molecule?
The Ki was less than 300 nM.

What does the source list for `COc1cccc(CNC[C@@H](O)[C@H](Cc2ccccc2)NC(=O)c2cc(C(=O)N(C)Cc3nc(C)cs3)cc(-c3ccccc3)c2)c1` [Compound 78, N3-((2S,3R)-3-hydroxy-4-(3-methoxybenzylamino)-1-phenylbutan-2-yl)-N5-methyl-N5-((4-methylthiazol-2-yl)methyl)biphenyl-3,5-dicarboxamide]?
IC50 [1]: < 1000 nM; Ki (memapsin 2): < 300 nM

What does the source list for `C[C@@H](NC(=O)c1cc(C(=O)N[C@@H](Cc2ccccc2)[C@H](O)CNCc2cccc(C(C)(C)C)c2O)cc(N(C)S(C)(=O)=O)c1)c1ccccc1` [Compound 79, N1-((2S,3R)-4-(3-tert-butyl-2-hydroxybenzylamino)-3-hydroxy-1-phenylbutan-2-yl)-5-(N-methylmethylsulfonamido)-N3-((R)-1-phenylethyl)isophthalamide]?
IC50 [1]: < 1000 nM; Ki (memapsin 2): < 300 nM

For `COc1cc(C(=O)NCc2nc(C)cs2)cc(C(=O)N[C@@H](Cc2ccccc2)[C@H](O)CNCc2ccnc(C(C)C)c2)c1` [Compound 83, N1-((2S,3R)-3-hydroxy-4-((2-isopropylpyridin-4-yl)methylamino)-1-phenylbutan-2-yl)-5-methoxy-N3-((4-methylthiazol-2-yl)methyl)isophthalamide], which IC50 [1] is on record?
The IC50 was less than 1000 nM.

What about the Ki (memapsin 2) of the same molecule?
Its Ki is less than 300 nM.

From patent US20100286145A1, “ISOPHTHALAMIDE DERIVATIVES INHIBITING BETA-SECRETASE ACTIVITY” (CoMentis, Inc., priority 2007, published 2010)
